From ChEMBL document CHEMBL5620387, “Discovery of 4'-trifluoromethylchalcones as novel, potent and selective hCYP1B1 inhibitors without concomitant AhR activation” (Eur J Med Chem, 2023)
pIC50: −log10 of the molar value. One block for each compound: values may come before it.

Key:
Cytochrome P450 2D6 = Cytochrome P450 2D6 (Homo sapiens, UniProt P10635); assay: Inhibition of human CYP2D6 in human liver microsomes by LC-MS/MS analysis; assay type: ADME, Microsome
Cytochrome P450 2C8 = target: T1, Cytochrome P450 2C8 (Homo sapiens, UniProt P10632); assay: Inhibition of human CYP2C8 in human liver microsomes by LC-MS/MS analysis; assay type: ADME, Microsome
T1 sequence (P10632 whole entry): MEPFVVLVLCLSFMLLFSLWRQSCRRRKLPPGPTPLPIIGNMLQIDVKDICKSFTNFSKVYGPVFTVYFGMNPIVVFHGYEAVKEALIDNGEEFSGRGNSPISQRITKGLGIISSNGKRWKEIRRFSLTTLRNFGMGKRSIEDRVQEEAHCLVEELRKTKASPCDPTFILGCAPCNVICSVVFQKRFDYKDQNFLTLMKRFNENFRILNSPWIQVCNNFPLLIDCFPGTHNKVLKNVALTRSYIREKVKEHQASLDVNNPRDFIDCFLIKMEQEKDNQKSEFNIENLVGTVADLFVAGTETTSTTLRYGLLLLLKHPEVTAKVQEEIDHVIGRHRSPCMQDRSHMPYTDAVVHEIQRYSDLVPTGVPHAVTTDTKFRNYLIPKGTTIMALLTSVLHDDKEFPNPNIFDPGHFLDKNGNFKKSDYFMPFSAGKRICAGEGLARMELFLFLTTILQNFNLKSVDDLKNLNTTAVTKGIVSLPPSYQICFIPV

Cytochrome P450 3A4 = Cytochrome P450 3A4 (Homo sapiens, UniProt P08684); assay: Inhibition of human CYP3A4 measured after 3 mins incubation by fluorescence assay; assay type: ADME
Cytochrome P450 1A2 [1] = target: T2, Cytochrome P450 1A2 (Homo sapiens, UniProt P05177); assay: Inhibition of human recombinant CYP1A2 assessed as fluorescence of resorufin; assay type: ADME
T2 sequence (P05177 whole entry): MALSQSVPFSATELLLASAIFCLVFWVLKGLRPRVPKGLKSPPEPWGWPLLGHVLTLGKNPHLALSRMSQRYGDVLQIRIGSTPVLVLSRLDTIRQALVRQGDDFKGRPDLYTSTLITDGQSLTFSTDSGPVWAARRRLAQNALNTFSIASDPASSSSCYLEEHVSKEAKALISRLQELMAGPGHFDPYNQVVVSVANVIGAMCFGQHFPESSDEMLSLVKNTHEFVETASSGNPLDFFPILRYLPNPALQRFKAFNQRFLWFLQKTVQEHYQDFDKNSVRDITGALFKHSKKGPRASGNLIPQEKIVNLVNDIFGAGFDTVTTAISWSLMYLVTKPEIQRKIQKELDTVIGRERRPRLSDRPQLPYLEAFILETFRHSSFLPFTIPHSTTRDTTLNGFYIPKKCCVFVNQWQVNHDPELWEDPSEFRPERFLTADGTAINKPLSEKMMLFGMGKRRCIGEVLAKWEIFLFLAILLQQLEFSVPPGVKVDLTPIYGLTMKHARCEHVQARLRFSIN

[2] = Metabolic stability in human liver microsomes assessed as relative remaining concentration measured after 60 mins by LC-UV analysis; assay type: ADME, Microsome; conditions: read-out: INH
Cytochrome P450 2A6 = target: T3, Cytochrome P450 2A6 (Homo sapiens, UniProt P11509); assay: Inhibition of human CYP2A6 in human liver microsomes by LC-MS/MS analysis; assay type: ADME, Microsome
T3 sequence (P11509 whole entry): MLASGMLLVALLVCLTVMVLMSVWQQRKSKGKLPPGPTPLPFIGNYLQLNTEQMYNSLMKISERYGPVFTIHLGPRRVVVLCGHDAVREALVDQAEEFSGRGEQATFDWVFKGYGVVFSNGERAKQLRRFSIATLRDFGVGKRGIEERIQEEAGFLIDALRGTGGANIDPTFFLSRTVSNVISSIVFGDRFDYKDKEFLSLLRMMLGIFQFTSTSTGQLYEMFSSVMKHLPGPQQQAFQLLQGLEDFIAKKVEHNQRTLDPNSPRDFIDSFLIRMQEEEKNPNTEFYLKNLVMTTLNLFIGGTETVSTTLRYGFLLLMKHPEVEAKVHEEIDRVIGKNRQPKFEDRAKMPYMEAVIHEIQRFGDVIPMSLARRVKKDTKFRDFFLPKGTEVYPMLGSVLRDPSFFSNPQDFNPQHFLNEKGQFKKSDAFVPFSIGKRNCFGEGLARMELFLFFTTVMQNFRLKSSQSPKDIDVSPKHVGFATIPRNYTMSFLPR

Cytochrome P450 2E1 = Cytochrome P450 2E1 (Homo sapiens, UniProt P05181); assay: Inhibition of human CYP2E1 in human liver microsomes by LC-MS/MS analysis; assay type: ADME, Microsome
Cytochrome P450 1A2 [3] = target: T2, Cytochrome P450 1A2; assay: Inhibition of human CYP1A2 in human liver microsomes by LC-MS/MS analysis; assay type: ADME, Microsome
Cytochrome P450 2C9 = Cytochrome P450 2C9 (Homo sapiens, UniProt P11712); assay: Inhibition of human CYP2C9 in human liver microsomes by LC-MS/MS analysis; assay type: ADME, Microsome
[4] = Metabolic stability in human liver microsomes assessed as half life measured after 60 mins by LC-UV analysis; assay type: ADME, Microsome
[5] = target: T4, Aryl hydrocarbon receptor (Homo sapiens, UniProt P35869); assay: Antagonist activity at aryl hydrocarbon receptor (unknown origin) expressed in HEK293T cells assessed as luciferase activity at 10 uM measured after 24 hrs; assay type: toxicity, cell-based
T4 sequence (P35869 whole entry): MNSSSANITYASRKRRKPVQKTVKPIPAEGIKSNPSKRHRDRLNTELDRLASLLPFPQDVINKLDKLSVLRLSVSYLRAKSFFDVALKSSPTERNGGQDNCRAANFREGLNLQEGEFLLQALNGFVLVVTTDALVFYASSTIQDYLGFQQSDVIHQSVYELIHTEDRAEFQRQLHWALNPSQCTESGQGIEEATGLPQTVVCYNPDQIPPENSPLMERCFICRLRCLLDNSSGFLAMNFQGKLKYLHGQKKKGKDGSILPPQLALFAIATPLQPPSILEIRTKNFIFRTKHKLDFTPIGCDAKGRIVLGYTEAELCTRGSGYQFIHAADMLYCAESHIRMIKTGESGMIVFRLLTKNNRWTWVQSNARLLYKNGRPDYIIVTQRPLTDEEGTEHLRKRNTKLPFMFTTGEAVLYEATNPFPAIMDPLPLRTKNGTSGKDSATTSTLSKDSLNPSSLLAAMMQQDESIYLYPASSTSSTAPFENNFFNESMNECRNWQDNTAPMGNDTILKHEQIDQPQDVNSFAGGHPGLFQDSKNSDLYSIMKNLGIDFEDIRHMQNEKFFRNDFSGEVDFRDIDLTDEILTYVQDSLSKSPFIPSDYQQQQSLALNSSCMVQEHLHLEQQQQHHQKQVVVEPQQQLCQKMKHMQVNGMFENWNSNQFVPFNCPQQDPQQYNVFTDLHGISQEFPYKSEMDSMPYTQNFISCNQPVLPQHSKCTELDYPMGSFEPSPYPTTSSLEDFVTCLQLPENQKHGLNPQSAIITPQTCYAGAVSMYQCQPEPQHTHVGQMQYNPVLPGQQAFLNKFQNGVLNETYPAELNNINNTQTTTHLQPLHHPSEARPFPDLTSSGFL

Cytochrome P450 2C19 = Cytochrome P450 2C19 (Homo sapiens, UniProt P33261); assay: Inhibition of human CYP2C19 in human liver microsomes by LC-MS/MS analysis; assay type: ADME, Microsome
Cytochrome P450 1A1 = target: T5, Cytochrome P450 1A1 (Homo sapiens, UniProt P04798); assay: Inhibition of human recombinant CYP1A1 assessed as fluorescence of resorufin; assay type: ADME
T5 sequence (P04798 whole entry): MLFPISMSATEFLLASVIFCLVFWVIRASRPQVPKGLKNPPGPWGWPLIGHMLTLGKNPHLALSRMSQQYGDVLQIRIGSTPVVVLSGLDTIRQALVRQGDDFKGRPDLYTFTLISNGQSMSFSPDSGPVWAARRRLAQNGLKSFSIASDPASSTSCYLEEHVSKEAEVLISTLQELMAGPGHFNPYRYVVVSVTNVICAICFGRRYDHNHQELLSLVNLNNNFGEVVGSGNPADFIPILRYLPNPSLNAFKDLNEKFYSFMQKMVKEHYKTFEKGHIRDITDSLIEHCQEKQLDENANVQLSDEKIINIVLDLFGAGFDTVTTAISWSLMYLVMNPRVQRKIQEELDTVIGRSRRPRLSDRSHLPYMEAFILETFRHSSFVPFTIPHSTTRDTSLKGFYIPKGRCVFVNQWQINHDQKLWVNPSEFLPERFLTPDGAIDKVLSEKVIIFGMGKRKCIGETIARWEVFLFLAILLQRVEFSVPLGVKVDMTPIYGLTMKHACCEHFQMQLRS

Cytochrome P450 1B1 [6] = target: T6, Cytochrome P450 1B1 (Homo sapiens, UniProt Q16678); assay: Inhibition of human recombinant CYP1B1 assessed as fluorescence of resorufin
T6 sequence (Q16678 whole entry): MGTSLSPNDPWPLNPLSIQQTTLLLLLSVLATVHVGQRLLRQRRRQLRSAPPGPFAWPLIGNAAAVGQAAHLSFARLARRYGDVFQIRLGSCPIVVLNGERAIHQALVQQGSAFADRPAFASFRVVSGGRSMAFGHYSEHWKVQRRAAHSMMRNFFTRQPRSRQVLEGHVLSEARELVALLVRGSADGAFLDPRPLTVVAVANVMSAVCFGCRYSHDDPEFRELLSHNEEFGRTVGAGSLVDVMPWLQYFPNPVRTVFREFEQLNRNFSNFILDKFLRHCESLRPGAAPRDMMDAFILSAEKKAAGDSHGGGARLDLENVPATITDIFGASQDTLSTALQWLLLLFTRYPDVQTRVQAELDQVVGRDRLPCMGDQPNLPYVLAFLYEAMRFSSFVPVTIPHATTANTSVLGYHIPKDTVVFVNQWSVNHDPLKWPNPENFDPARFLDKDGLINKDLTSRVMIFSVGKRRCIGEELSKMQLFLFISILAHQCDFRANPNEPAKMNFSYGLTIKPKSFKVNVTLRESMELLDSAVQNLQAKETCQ

[7] = target: T4, Aryl hydrocarbon receptor; assay: Agonist activity at aryl hydrocarbon receptor (unknown origin) expressed in HEK293T cells assessed as luciferase activity at 10 uM measured after 24 hrs; assay type: toxicity, cell-based
Cytochrome P450 1B1 [8] = target: T6, Cytochrome P450 1B1; assay: Inhibition of human CYP1B1 overexpressed in CHO cells assessed as intracellular protein inhibition measured at 10 to 100 uM after 3 hrs; assay type: cell-based; conditions: dose 10-100 µM

Cytochrome P450 2D6, sequence (P10635 whole entry): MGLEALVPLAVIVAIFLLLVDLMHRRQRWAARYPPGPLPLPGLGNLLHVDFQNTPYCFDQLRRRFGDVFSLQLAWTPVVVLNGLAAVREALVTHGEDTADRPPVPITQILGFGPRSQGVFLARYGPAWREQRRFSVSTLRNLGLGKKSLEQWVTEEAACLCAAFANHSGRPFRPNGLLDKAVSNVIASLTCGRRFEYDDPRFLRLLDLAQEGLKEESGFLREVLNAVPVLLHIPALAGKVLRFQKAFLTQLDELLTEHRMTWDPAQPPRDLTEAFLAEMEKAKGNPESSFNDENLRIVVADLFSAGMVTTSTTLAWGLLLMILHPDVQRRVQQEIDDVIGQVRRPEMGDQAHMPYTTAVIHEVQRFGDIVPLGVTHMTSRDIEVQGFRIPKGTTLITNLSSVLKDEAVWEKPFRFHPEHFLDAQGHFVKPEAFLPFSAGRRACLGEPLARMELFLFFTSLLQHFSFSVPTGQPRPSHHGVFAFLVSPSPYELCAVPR
Cytochrome P450 2C19, sequence (P33261 whole entry): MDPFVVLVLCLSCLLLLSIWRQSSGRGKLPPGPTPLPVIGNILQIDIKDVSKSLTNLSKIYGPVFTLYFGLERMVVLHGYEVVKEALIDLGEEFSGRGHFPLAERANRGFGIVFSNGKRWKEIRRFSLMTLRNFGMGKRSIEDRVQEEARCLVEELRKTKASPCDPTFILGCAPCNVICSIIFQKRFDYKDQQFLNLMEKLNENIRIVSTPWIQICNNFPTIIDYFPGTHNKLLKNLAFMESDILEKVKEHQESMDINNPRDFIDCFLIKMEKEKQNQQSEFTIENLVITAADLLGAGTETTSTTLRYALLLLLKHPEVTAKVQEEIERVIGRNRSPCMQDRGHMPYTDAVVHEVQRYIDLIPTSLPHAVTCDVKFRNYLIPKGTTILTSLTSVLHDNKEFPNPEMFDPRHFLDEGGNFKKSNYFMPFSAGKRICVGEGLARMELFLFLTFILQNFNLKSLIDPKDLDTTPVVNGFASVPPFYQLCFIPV
Cytochrome P450 2E1, sequence (P05181 whole entry): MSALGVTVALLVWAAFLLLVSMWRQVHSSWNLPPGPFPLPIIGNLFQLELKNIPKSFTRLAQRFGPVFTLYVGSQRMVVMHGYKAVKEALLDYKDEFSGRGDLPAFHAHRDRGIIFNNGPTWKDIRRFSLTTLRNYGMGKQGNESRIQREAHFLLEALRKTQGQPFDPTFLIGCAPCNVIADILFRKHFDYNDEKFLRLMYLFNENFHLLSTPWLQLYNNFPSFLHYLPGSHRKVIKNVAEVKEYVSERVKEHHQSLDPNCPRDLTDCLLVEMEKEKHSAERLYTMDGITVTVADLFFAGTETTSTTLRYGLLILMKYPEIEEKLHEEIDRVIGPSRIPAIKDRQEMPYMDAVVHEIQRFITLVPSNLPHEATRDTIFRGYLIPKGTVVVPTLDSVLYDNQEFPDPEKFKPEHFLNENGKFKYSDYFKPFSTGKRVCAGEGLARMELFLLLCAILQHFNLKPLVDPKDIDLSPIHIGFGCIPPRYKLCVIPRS
Cytochrome P450 3A4, sequence (P08684 whole entry): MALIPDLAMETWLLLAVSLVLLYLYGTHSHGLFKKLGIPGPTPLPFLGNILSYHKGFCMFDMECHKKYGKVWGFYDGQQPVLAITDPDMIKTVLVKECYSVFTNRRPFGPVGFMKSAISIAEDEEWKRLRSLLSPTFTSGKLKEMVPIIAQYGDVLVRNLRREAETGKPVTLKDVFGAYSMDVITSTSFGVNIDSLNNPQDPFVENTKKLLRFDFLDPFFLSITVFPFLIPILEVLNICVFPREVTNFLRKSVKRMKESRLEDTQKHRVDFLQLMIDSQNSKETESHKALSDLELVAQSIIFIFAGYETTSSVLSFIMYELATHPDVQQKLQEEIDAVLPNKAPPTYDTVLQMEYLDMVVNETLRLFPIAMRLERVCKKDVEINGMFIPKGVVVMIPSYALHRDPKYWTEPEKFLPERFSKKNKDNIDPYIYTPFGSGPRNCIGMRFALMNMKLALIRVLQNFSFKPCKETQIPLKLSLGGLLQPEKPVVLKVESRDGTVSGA
Cytochrome P450 2C9, sequence (P11712 whole entry): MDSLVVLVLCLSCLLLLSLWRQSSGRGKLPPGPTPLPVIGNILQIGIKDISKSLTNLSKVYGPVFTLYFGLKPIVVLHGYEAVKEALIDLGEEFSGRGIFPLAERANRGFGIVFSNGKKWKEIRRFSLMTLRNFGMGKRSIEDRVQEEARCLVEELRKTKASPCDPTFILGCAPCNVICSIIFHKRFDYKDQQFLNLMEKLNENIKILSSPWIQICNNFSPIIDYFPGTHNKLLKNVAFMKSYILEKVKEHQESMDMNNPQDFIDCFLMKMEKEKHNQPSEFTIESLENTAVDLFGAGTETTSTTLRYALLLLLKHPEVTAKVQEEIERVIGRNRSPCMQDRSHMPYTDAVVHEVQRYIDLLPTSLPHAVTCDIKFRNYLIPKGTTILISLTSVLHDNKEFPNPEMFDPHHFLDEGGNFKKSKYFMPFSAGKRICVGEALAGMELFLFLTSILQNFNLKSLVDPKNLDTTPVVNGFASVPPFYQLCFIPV

Compound: COc1cc(OC)c(/C=C/C(=O)c2ccc(C(F)(F)F)cc2)cc1Cl
pIC50 (Cytochrome P450 2D6): < 4.00 | pIC50 (Cytochrome P450 2C8): < 4.00 | pIC50 (Cytochrome P450 3A4): < 4.00 | pIC50 (Cytochrome P450 1A2 [1]): < 4.00 | remaining at 1 h [2]: 54.5% | pIC50 (Cytochrome P450 2A6): < 4.00 | pIC50 (Cytochrome P450 2E1): < 4.00 | pIC50 (Cytochrome P450 1A2 [3]): < 4.00 | pIC50 (Cytochrome P450 2C9): < 4.00 | half-life [4]: 64.5 min | Activity [5]: Active | pIC50 (Cytochrome P450 2C19): < 4.00

Compound: CCCOc1ccc(/C=C/C(=O)c2ccc(C(F)(F)F)cc2)cc1
pIC50 (Cytochrome P450 1A2 [1]): < 4.00

Compound: O=C(/C=C/c1ccccc1)c1ccc(Cl)cc1
pIC50 (Cytochrome P450 1B1 [6]): 7.37

Compound: CN(C)c1ccc(C(=O)/C=C/c2ccccc2)cc1
pIC50 (Cytochrome P450 1B1 [6]): 6.96

Compound: O=c1cc(-c2ccccc2)oc2c1ccc1ccccc12 [ALPHA-NAPHTHOFLAVONE]
pIC50 (Cytochrome P450 1A1): 8.13 | inhibition (INH) (Cytochrome P450 1B1 [8]): Dose-Dependent Effect

Compound: O=C(/C=C/c1ccccc1)c1ccc(C(F)(F)F)cc1
pIC50 (Cytochrome P450 1A1): 6.56 | pIC50 (Cytochrome P450 1B1 [6]): 7.58 | pIC50 (Cytochrome P450 1A2 [1]): < 4.00

Compound: COc1ccc(C(=O)/C=C/c2ccccc2)cc1 [4'-METHOXYCHALCONE]
pIC50 (Cytochrome P450 1B1 [6]): 6.74

Compound: O=C(/C=C/c1ccccc1)c1ccccc1 [CHALCONE]
pIC50 (Cytochrome P450 1B1 [6]): 6.52

Compound: Cc1ccc(/C=C/C(=O)c2ccc(C(F)(F)F)cc2)cc1
pIC50 (Cytochrome P450 1A2 [1]): < 4.00

Now from value to compound, other results behind:

pIC50 (Cytochrome P450 1A1): 5.77 | pIC50 (Cytochrome P450 1B1 [6]): 8.33 | pIC50 (Cytochrome P450 1A2 [1]): < 4.00 | remaining at 1 h [2]: 11.8% | half-life [4]: 28.9 min
Compound: COc1ccc(/C=C/C(=O)c2ccc(C(F)(F)F)cc2)c(OC)c1
Activity [5]: Active

pIC50 (Cytochrome P450 1A2 [1]): < 4.00 | remaining at 1 h [2]: 21% | half-life [4]: 35.6 min
Compound: COc1cc(O)ccc1/C=C/C(=O)c1ccc(C(F)(F)F)cc1
Activity [7]: Active

pIC50 (Cytochrome P450 1A2 [1]): < 4.00
Compound: COc1cc(OC(=O)c2cccs2)ccc1/C=C/C(=O)c1ccc(C(F)(F)F)cc1

pIC50 (Cytochrome P450 1A2 [1]): < 4.00
Compound: COc1cc(O)c(Br)cc1/C=C/C(=O)c1ccc(C(F)(F)F)cc1

pIC50 (Cytochrome P450 1A2 [1]): < 4.00
Compound: COc1cc(O)c(Cl)cc1/C=C/C(=O)c1ccc(C(F)(F)F)cc1
Activity [7]: Active

pIC50 (Cytochrome P450 1A2 [1]): < 4.00
Compound: COc1cc(OC(C)=O)ccc1/C=C/C(=O)c1ccc(C(F)(F)F)cc1
